Assay results as given in BigSolDB 2.1.

CC(C)(C)C(O)(CCc1ccc(Cl)cc1)Cn1cncn1 (stereo not given)
solubility (mole fraction)
Settings	in 2-butanone	in acetone	in acetonitrile	in ethanol	in ethyl acetate	in isopropanol	in methanol	in n-propanol	in toluene
278.15 K	0.0404	0.0304	0.00516	0.0103	0.0244	0.00877	0.0154	0.00704	0.0217
280.65 K	0.0439	0.0336	0.00585	0.0118	0.027	0.0103	0.0174	0.00825	0.0244
283.15 K	0.0476	0.038	0.00662	0.0136	0.03	0.012	0.0196	0.00953	0.0276
285.65 K	0.0524	0.0416	0.00746	0.0157	0.0336	0.0138	0.0225	0.0112	0.0311
288.15 K	0.0569	0.0461	0.00838	0.0179	0.0377	0.0159	0.0253	0.0133	0.0354
290.65 K	0.0612	0.0507	0.00942	0.0203	0.0421	0.018	0.0284	0.0153	0.0404
293.15 K	0.0659	0.0562	0.0107	0.0234	0.0466	0.0204	0.032	0.0175	0.0453
295.65 K	0.0709	0.0613	0.012	0.0264	0.0512	0.023	0.0359	0.0201	0.0512
298.15 K	0.076	0.0668	0.0134	0.0299	0.0564	0.026	0.04	0.0227	0.0578
300.65 K	0.0815	0.0723	0.0149	0.0333	0.0612	0.0293	0.0444	0.0258	0.0644
303.15 K	0.0869	0.0789	0.0165	0.037	0.0668	0.0328	0.0497	0.0296	0.0712
305.65 K	0.0928	0.0851	0.0186	0.0411	0.0734	0.0367	0.0551	0.0338	0.079
308.15 K	0.0987	0.0925	0.0208	0.0463	0.0797	0.0416	0.06	0.0388	0.0873
310.65 K	0.106	0.101	0.0233	0.0515	0.0867	0.0462	0.0659	0.0444	0.0964
313.15 K	0.113	0.11	0.0261	0.0572	0.0945	0.0519	0.0724	0.0498	0.105
